The values that follow come from patent US20200069805A1, “PHARMACEUTICAL COMPOSITIONS WITH SYNCHRONIZED SOLUBILIZER RELEASE” (Lipocine Inc., priority 2003, published 2020).

Values after ≈ are worked out from the molar mass of the structure shown.

Usually solubility stands for the concentration that dissolves in the medium under given conditions.

For data set [1] the following is noted: cited from earlier work.
The conditions of data set [2]: immediate release tablet dosage form; high fat meal; cited from earlier work.
The nature of data set [3]: Equilibrium aqueous solubility of cilostazol in simulated intestinal fluid with solubilizers. The data set is classed as physicochemical. The protocol: Solutions of simulated intestinal fluid without enzyme (USP 26, pH 6.8) were prepared over a range of solubilizer concentrations. Excess cilostazol was added and equilibrated with gentle mixing at controlled temperature (37±0.5° C.). The aqueous solutions with excess drug were then filtered ([…] nominal pore size) and the clear filtrate was diluted and assayed by HPLC for cilostazol concentrations.

Regarding `COc1ccccc1OCCNCC(O)COc1cccc2[nH]c3ccccc3c12` (centres unmarked) [Carvedilol], in data set [1], the “equilibrium solubility of the acid addition HCl salt” value is recorded as “about 1 mg/ml”, the pKa entry is “about 7.6” and the water solubility result is “less than 0.001 mg/ml”. Further, the “aqueous solubility at low pH” value in data set [1] (low pH, limited by relatively insoluble hydrochloric acid addition salt) was “less than 1 mg/ml”.
Regarding `O=C1CCc2cc(OCCCCc3nnnn3C3CCCCC3)ccc2N1` [cilostazol], the AUC increase entry in data set [2] was “about 25%”. Moreover, in data set [2], the Cmax increase result is “about 90%”. Also, the “solubility enhancement of cilostazol” value in data set [3] (Cremphor RH40 at 0.05% w/v) is reported as about 30%; in data set [3] (Cremphor RH40 at 1% w/v), about 5 fold. The “increase in solubility of cilostazol over its intrinsic aqueous solubility” value in data set [3] (d-a-tocopherol polyethylene glycol 1000 succinate at 0.05% w/v) is reported as about 60%; in data set [3] (d-a-tocopherol polyethylene glycol 1000 succinate at 1% w/v), about 10 fold. In addition, the solubility in data set [3] (simulated intestinal fluid without enzyme (USP 26), fassgf or other biorelevant, thermodynamic from solid, SIF without enzyme pH 6.8, 37 °C, no solubilizer, read-out: intrinsic solubility of cilostazol) was 6.5 µg/mL (≈ 17.6 µM).
